Common to all, as to test: NCI anticancer screen, dose series, 48 h
Test [1] has as its system SR leukemia.
In test [2] the test system is PC-3 prostate.
For test [3], the system named is SF-295 CNS.
For test [4], the system named is HCT-116 colon.
Test [5] deals with SK-OV-3 ovarian.
Test [6] deals with DU-145 prostate.
The subject of test [7] is OVCAR-3 ovarian.
For test [8], the system named is SK-MEL-5 melanoma.
Test [9] concerns HT29 colon.

SMILES strings stand for the structures.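 Method: 48-hour compound exposure of cells in 96-well plates, five concentrations, linear interpolation of endpoints. GI50 marks 50% less growth. At the TGI there is no net growth.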

Take `COc1ccc(O[C@H](CO)C[C@@H]2COC(C)(C)O2)cc1`: the TGI in [1], in test [2], in test [3], in [4], in test [5] and in test [6] was > 100 µM each time. The TGI in test [7], in test [8] and in [9] was > 100 µM each time.
As for `O=c1c2ccc(Cl)cc2oc2c(CSc3ccccc3)cccc12`, the TGI in test [1], in [2], in test [3], in test [4], in test [5] and in [6] was > 100 µM each time. For the same compound, the TGI in [7] was > 100 µM; in [8] it was > 92.1 µM; in test [9], > 100 µM.
Turning to `OCCN1CCN(c2nc(N3CCCC3)c3nc(Cl)c(NCc4ccccc4)nc3n2)CC1`, the TGI in test [1] amounted to 15.2 µM; in test [2] it was 22.8 µM; in test [3], 13.4 µM; in [4], 17.6 µM; in [5], 27.5 µM; in test [6] it was 23.6 µM. Moreover, the TGI in test [7] came out at 23.5 µM; in test [8], 7.82 µM; in test [9] it was 10.6 µM.
Turning to `COc1cc2c(cc1O)C(Cc1ccc(OCc3ccccc3)c(OCc3ccccc3)c1)N(C(=O)NCCc1ccccc1)CC2` (stereo unspecified), the TGI in [1], in test [2], in test [3], in test [4], in test [5] and in test [6] was > 100 µM in each case. Further, the TGI in test [7], in test [8] and in test [9] was > 100 µM each time.
Regarding `Cc1nnc(SCc2nc(C#N)c(C#N)nc2CSc2nnc(C)s2)s1`, the TGI is 51.4 µM in test [1]; 41.1 µM in [2]; > 100 µM in [3]; 11.5 µM in test [4]; > 75.9 µM in [5]; 29.2 µM in [6]. Further, the TGI in test [7] was 20.7 µM; in test [8] it was 29.2 µM; in test [9], 37.2 µM.
With `Cc1ccc(C(=O)Nc2ccc(CP(=O)(O)O)cc2CP(=O)(O)O)cc1N`, the TGI in test [1], in test [2], in [3], in [4], in test [5] and in test [6] was > 100 µM throughout. The TGI in [7], in [8] and in test [9] was > 100 µM throughout.
Regarding `Cc1n[nH]c(=O)n1-n1cccc1`, the TGI in test [1], in test [2], in [3], in [4], in [5] and in test [6] was > 100 µM each time. Besides, the TGI in [7], in test [8] and in [9] was > 100 µM throughout.
Take `CC1(C)C(=O)/C(=C/c2ccccc2)C(C)(C)C1(C)C`: the TGI in test [1] was > 74.2 µM; in test [2], > 100 µM; in test [3], > 100 µM; in [4] it was > 100 µM; in test [5], > 100 µM; in test [6], > 100 µM. Moreover, the TGI in test [7] was > 83.2 µM; in test [8], > 100 µM; in test [9] it was > 100 µM.
As to `N#Cc1cc(F)cc(Oc2ccc(S(=O)(=O)C(F)F)c3c2CC(F)(F)[C@H]3O)c1`, the GI50 was 36 µM in [1]; 23.9 µM in [2]; 24.9 µM in test [3]; 25.2 µM in test [4]; 31.4 µM in test [5]; 36.1 µM in test [6]. Further, the values for the GI50 in test [7], in test [8] and in test [9] were 36.5 µM, 17.6 µM and 39.3 µM, respectively. Moreover, the TGI in test [1] was > 100 µM; in test [2], > 100 µM; in test [3], 79.2 µM; in [4], > 100 µM; in test [5], > 100 µM; in test [6], > 100 µM. Moreover, the TGI was > 100 µM in [7], 34.7 µM in test [8] and > 100 µM in [9].
As for `CC(=O)Oc1cc2c(cc1OCC(F)(F)F)[C@H]1CC[C@]3(C)[C@@H](OC(C)=O)CC[C@H]3[C@@H]1CC2=O`, the TGI in test [1] is > 77.9 µM; in [2], 37.6 µM; in test [3], 88.3 µM; in test [4], 55 µM; in test [5], 59.7 µM; in [6], 51.6 µM. For the same compound, the TGI in test [7] was 45.6 µM; in [8] it was 49.2 µM; in [9] it was > 63.8 µM.
Turning to `CC[C@]1(c2ccc3c(c2)OCO3)C=[N+]([O-])O[C@H](OC2CCCC2(c2ccccc2)c2ccccc2)[C@@H]1OC(C)=O` (stereo partly specified), the TGI is > 21.7 µM in test [1]; 13.1 µM in test [2]; 3.2 µM in test [3]; 3.67 µM in [4]; 14.4 µM in [5]; 7.44 µM in test [6]. Also, the TGI in test [7] worked out at 3.42 µM; in [8] it was 3.54 µM; in test [9] it was 3.78 µM.
For the compound `Cc1cccc2c1nc1n2C(=O)c2ccccc2-1`, the TGI in test [1], in test [2], in [3], in test [4], in test [5] and in test [6] was > 100 µM each time. The TGI in [7], in test [8] and in test [9] was > 100 µM throughout.
With `COC(=O)c1c(O)ccc2c1c1c(n2Cc2ccc(OC)cc2)C(=O)c2ccccc2C1`, the TGI in test [1] was > 100 µM; in test [2] it was 59.5 µM; in test [3], > 100 µM; in [4] it was > 100 µM; in [5], > 100 µM; in test [6], > 100 µM. Besides, the TGI in test [7] was > 100 µM; in test [8] it was > 100 µM; in test [9] it was 47.4 µM.
On to `C[C@H]1CCC/C=C/[C@@H]2C[C@H](OC3OC(CO)C(O)C(O)C3O)C[C@H]2[C@H](O)/C=C/C(=O)O1` (stereo partly specified), for which the TGI in test [1], in [2], in test [3], in test [4], in [5] and in test [6] was > 100 µM each time. Further, the TGI is > 100 µM in test [7], 31.6 µM in test [8] and > 100 µM in [9].
Turning to `CC(C)OC(=O)C(NC(=O)C(CC(=O)OCc1ccccc1)NC(=O)OCc1ccccc1)NC(=O)C1C(C)(C)CCC1(C)C` (stereo unspecified), the TGI is 7.5 µM in test [1]; 11.2 µM in test [2]; 31.1 µM in test [3]; 12 µM in test [4]; 10.4 µM in test [5]; > 52.4 µM in test [6]. Also, the TGI in [7] came out at 8.01 µM; in test [8], 27.1 µM; in test [9], 14.3 µM.
Regarding `Cn1c(CO)ccc1-c1ccc(-c2ccc(CO)[se]2)[se]1`, the TGI in [1] is > 100 µM; in [2], > 100 µM; in test [3] it was > 100 µM; in test [4], 60 µM; in test [5], > 100 µM; in test [6], > 100 µM. The TGI in [7] is 26.7 µM; in test [8], 6.74 µM; in [9], > 100 µM.
Turning to `CN(C)c1cccc2c(S(=O)(=O)NCCN)cccc12`, the TGI in test [1], in test [2], in test [3], in [4], in [5] and in test [6] was > 100 µM in each case. The TGI in [7], in test [8] and in test [9] was > 100 µM throughout.
In the case of `CC(=O)c1c(-c2ccc(Cl)cc2)c(C#N)c(=S)n(C2OC(CO)C(O)C(O)C2O)c1C` (stereo unspecified), the TGI was 87.6 µM in test [1]; 99.3 µM in [2]; > 100 µM in test [3]; > 100 µM in test [4]; > 100 µM in test [5]; > 100 µM in test [6]. The TGI in test [7], in [8] and in [9] was > 100 µM in each case.
With `CCc1c(O)nc(Nc2nc3ccccc3[nH]2)[nH]c1=O`, the TGI in test [1], in [2], in test [3], in test [4], in test [5] and in [6] was > 100 µM throughout. The TGI in test [7], in test [8] and in [9] was > 100 µM each time.
Turning to `Cc1cc2nc(N3C(=O)/C(=C/Cc4ccco4)N=C3c3ccccc3)sc2cc1C`, the TGI in test [1] is > 100 µM; in test [2], 54 µM; in [3] it was > 100 µM; in test [4] it was 54 µM; in test [5], > 100 µM; in test [6] it was > 100 µM. Also, the TGI is > 100 µM in test [7], > 100 µM in test [8] and 76.5 µM in test [9].
As for `C/C(=N\NC(=S)NC(C)(C)C)c1nc2ncccc2[nH]1`, the TGI is > 72.2 µM in test [1]; > 100 µM in test [2]; > 100 µM in test [3]; > 100 µM in test [4]; 12.6 µM in test [5]; > 57.5 µM in test [6]. Also, the TGI was > 100 µM in test [7], 14.1 µM in [8] and > 100 µM in test [9].
For `C[n+]1c2ccccc2n2c3ccccc3c(NCCCn3ccnc3)c(C#N)c21`, the TGI in test [1] is > 100 µM; in test [2] it was 9.62 µM; in [3], 17.4 µM; in test [4], 10.1 µM; in test [5] it was 38.8 µM; in test [6], 15.5 µM. Besides, the figures for the TGI in test [7], in [8] and in test [9] were > 25.2 µM, 13.1 µM and 37.9 µM, respectively.
With `O=C(N/N=C/c1ccccc1)c1c(F)c(F)c(F)c(F)c1F`, the TGI in [1], in test [2], in [3], in [4], in test [5] and in [6] was > 100 µM in each case. Also, the TGI in test [7], in test [8] and in [9] was > 100 µM in each case.
Regarding `COC(=O)CCC(C)[C@H]1CCC2C3CC[C@@H]4CC5(CC[C@]4(C)C3C[C@H](OC(C)=O)[C@@]21C)OOC1(CCCCC1)OO5` (stereo partly specified), the TGI is > 100 µM in test [1]; > 100 µM in [2]; > 100 µM in [3]; > 100 µM in test [4]; > 100 µM in test [5]; 43.1 µM in [6]. Moreover, the TGI in [7] was > 100 µM; in test [8], 80.9 µM; in [9], > 100 µM.
As for `Nc1c(C(=O)O)c2ccc([N+](=O)[O-])cc2c(=O)n1-c1nc2ccccc2s1`, the TGI in [1], in [2], in test [3], in test [4], in test [5] and in test [6] was > 100 µM each time. The TGI in test [7], in test [8] and in test [9] was > 100 µM throughout.
Turning to `CC(=O)OC12c3ccccc3C(c3ccccc31)C1C(=O)N(N=C(C)C)C(=O)C12` (stereo unspecified), the TGI in test [1], in [2], in [3], in test [4], in test [5] and in test [6] was > 100 µM in each case. Also, the TGI in test [7], in [8] and in test [9] was > 100 µM in each case.
`CCCCCCCCCCCCCCCCNc1nc(=O)n(C2OC(C)C(O)C2O)cc1F` (stereo unspecified): the TGI is > 100 µM in [1]; 28.1 µM in test [2]; 43 µM in test [3]; 36.7 µM in [4]; 37.4 µM in [5]; 36 µM in test [6]. The TGI in test [7] came out at 34.8 µM; in test [8], 43.4 µM; in test [9], 31.2 µM.
Turning to `O=c1[nH]c2c(Nc3c4ccccc4nc4ccccc34)c([N+](=O)[O-])c(Nc3c4ccccc4nc4ccccc34)c([N+](=O)[O-])c2[nH]1`, the TGI amounted to 4.07 µM in test [1]; 5.97 µM in test [2]; 12.8 µM in test [3]; 8.45 µM in test [4]; 18.4 µM in [5]; 11.5 µM in test [6]. Also, the TGI in test [7] came out at 6.87 µM; in [8] it was 4 µM; in test [9], 3.11 µM.
